Measured values from patent publication US8367710B2, “Bicyclo-substituted pyrazolon azo derivatives, preparation process and pharmaceutical use thereof” (Jiangsu Hengrui Medicine Co. Ltd., priority 2008, dated 2013).
Each block holds one molecule with its values, some of them ahead of it.

Legend:
[1] = Pharmacokinetics assay in rats after intragastric administration; format: in vivo; settings: both sexes, Sprague-Dawley, rat, plasma, po, SD rats, 5 mg/Kg; for Vd/F: read-out: Apparent Distribution Volume Vz/F; for CL/F: read-out: Clearance CL/F (converted); for AUC: read-out: Curve Area AUC; for half-life: read-out: Half-Life t½ (converted); for MRT: read-out: Mean Residence Time MRT; for Cmax: read-out: Plasma Conc. Cmax
Description: Test Example 1: Pharmacokinetics assay of the compounds of the present disclosure
The pharmacokinetics of the compounds of the present disclosure was studied and evaluated in rats.
The test compound was diluted with 1% sodium carboxymethyl cellulose to 0.5 mg/mL (calculated as the free acid form) of suspension before use.
24 healthy adult SD rats, male and female in half, were divided into […]. After an overnight fast, the rats were administered intragastrically at a dose of 5.0 mg/kg (calculated as the free acid form), at a volume of 10 mL/kg.
24 healthy adult SD rats, male and female in half, were administered intragastrically at a dose of 5.0 mg/kg after an overnight fast. Blood samples (0.2 mL) were taken from eye socket at pre administration and at 0.5, 1.0, 2.0, 3.0, 4.0, 5.0, 6.0, 8.0, 11.0, 14.0, 24.0, 36.0 and 48.0 hours post administration, which were stored in heparinized tubes and centrifuged for 10 minutes at 3,500 rpm. The plasma samples were stored at −20° C. until analysis.
50 μL of rat plasma, obtained at various time points after administration, 20 μL of internal standard solution and 20 μL of a solvent mixture of methanol and water (80:20, v/v) were mixed well, and then 150 μL of methanol was added to result in protein precipitation. Then the mixture was mixed for 1 minute using a vortexer and centrifuged for 10 minutes at 13,000 rpm. 20 μL of the supernatant was analyzed by LC/MS/MS.
50 μL of blank plasma was spiked with a series of standard solutions to produce final concentrations of 1.0, 5.0, 25.0, 50.0, 100.0, 250.0, 500.0 ng/mL, followed by addition of 20 μL of internal standard solution, which was treated according to plasma sample pretreatment protocol. A typical calibration curve equation was obtained with plasma concentration as the abscissa and the chromatographic peak area ratio of sample to internal standard as the ordinate, using weighted least squares method (w=1/x^2) for linear regression.
The compartmental model of pharmacokinetics was fitted for the test compounds and the major pharmacokinetic parameters were calculated in which Cmax and tmax were the actually measured values.

human TPO receptor = biological target: T1, human TPO receptor (Homo sapiens, UniProt P40238); experiment: pro-proliferation effect on BAF3-TPOR cell (CCK-8); format: cell-based, mouse; settings: BAF3-TPOR cells, proliferation relative to rhTPO positive control
T1 sequence (P40238 26-635): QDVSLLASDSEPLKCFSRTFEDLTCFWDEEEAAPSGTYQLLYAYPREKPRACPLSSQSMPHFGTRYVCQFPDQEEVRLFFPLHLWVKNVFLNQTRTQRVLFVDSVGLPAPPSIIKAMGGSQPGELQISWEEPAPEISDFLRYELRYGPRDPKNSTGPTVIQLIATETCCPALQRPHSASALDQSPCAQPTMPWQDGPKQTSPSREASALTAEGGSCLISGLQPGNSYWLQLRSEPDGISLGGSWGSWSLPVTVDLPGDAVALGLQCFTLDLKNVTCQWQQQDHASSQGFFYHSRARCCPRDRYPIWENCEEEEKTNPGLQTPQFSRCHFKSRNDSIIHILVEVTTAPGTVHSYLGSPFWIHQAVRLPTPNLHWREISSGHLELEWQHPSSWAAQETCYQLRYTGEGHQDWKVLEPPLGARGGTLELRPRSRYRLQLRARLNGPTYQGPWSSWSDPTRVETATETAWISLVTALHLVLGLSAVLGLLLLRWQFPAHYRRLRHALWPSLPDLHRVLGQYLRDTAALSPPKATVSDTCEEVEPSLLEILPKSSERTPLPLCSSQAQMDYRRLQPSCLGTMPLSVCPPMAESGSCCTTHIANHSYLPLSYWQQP
Description: The sequence of primers which contains multi-sites mutation was designed as follows: […]
The E. coli DH5α competent cell was transformed with mutated plasmid, and positive colonies were picked up through ampicillin selection.
(2) BAF3-TPOR stable transfected cell line: the following method was used to construct the BaF3 cell which stably over-expressed functional human TPO receptor. […] The stable transfected cells BAF3-TPOR were selected with G418 (Gibco, US), then incubated with RPMI1640 medium plus 10% FBS (Gibco, US), […] G418, 5 ng/mL, rmIL-3 (Chemicon, US).
(1) Washing cells by centrifugation: a suitable amount of cell suspension was centrifuged at 1000 rpm for 5 minutes, and the supernatant was discarded. 10 mL of cell culture media without containing IL-3 was added. Then the resulting cell suspension was centrifuged at 1000 rpm for 5 minutes, and the supernatant was discarded.
(2) 1 mL of cell culture media without containing IL-3 was added to beat upon them to equality, and the number of a suitable amount of cell suspension was counted after dilution.
(3) According to the result of the cell counting, a cell suspension in a concentration of 100,000 cell/mL was prepared.
(4) 100 μL of cell suspension was transferred to each well of 96-well culture plate, and there were 3 parallel wells, that is, there were a blank control group (B), a negative control group (N), a positive control group of TPO (P) and a test compound group (S).
(5) The test compound was dissolved in DMSO to prepare a 10 mM stock solution, and then the solution was diluted with RPMI 1640 medium into a series of test samples at different concentration: 30 μM, 10 μM, 3 μM, 1 μM, 0.3 μM, 0.1 μM, 0.03 μM, 0.01 μM, 0.003 μM, 0.001 μM.
(6) 10 μL of test compound solution was transferred to each well respectively; 1 μL of rhTPO (10 μg/mL) was added to positive control well.
(7) The plates were incubated in an incubator at 5% CO2 and 37° C. for 24 hours.
(9) OD value was detected at 450 nm by VICTOR3 (Perkin Elmer 1420-120) plate reader.
(1) The proliferation rate was calculated as follows: Rate=[(S−B)/(P−B)]*100%
S: OD value of wells which contains test compound.
B: OD value of blank control wells
P: OD value of positive control wells
(2) The EC50 value was calculated by Origin 7.0 software.

- Vd/F [1]: 1.53 ± 0.26 L/kg
- CL/F [1]: 3 mL/min/kg
- AUC [1]: 29000 ± 3820 ng·h/mL
- half-life [1]: 367 ± 62.4 min
- MRT [1]: 4.63 ± 1.03 h
- Cmax [1]: 8470 ± 950 ng/mL
- EC50 (human TPO receptor): 299 nM
SMILES: CC1=NN(c2ccc(C)c(C)c2)C(=O)/C1=N\Nc1cccc(-c2cccc(C(=O)O)c2)c1O [Eltrombopag, eltrombopag, reference compound]

- Vd/F [1]: 0.77 ± 0.39 L/kg
- CL/F [1]: 2.33 mL/min/kg
- AUC [1]: 44800 ± 19400 ng·h/mL
- half-life [1]: 241 ± 37.8 min
- MRT [1]: 4.29 ± 0.8 h
- Cmax [1]: 13000 ± 5960 ng/mL
- EC50 (human TPO receptor): 124 nM
SMILES: CC1=NN(c2ccc3c(c2)CCC3)C(=O)/C1=N\Nc1cc(C)cc(-c2cccc(C(=O)O)c2)c1O [Example 29, 2′-Hydroxy-3′-[N′-(1-indan-5-yl-3-methyl-5-oxo-1,5-dihydro-pyrazol-4-ylidene)-hydrazino]-5′-methyl-biphenyl-3-carboxylic acid]

- EC50 (human TPO receptor): 130 nM
SMILES: CC1=NN(c2ccc3c(c2)CC(C)(C)C3)C(=O)/C1=N\Nc1cccc(-c2ccc(C(=O)O)o2)c1O [Example 45, 5-(3-{N′-[1-(2,2-Dimethyl-indan-5-yl)-3-methyl-5-oxo-1,5-dihydro-pyrazol-4-ylidene]-hydrazino}-2-hydroxy-phenyl)-furan-2-carboxylic acid]

- EC50 (human TPO receptor): 56 nM
SMILES: CC1=NN(c2ccc3c(c2)CCC3)C(=O)/C1=N\Nc1cc(C)cc(-c2ccc(C(=O)O)o2)c1O [Example 46, 5-{2-Hydroxy-3-[N′-(1-indan-5-yl-3-methyl-5-oxo-1,5-dihydro-pyrazol-4-ylidene)-hydrazino]-5-methyl-phenyl}-furan-2-carboxylic acid]

- EC50 (human TPO receptor): 126 nM
SMILES: CC1=NN(c2ccc3c(c2)CCCC3)C(=O)/C1=N\Nc1cc(C)cc(-c2ccc(C(=O)O)o2)c1O [Example 50, 5-(2-Hydroxy-5-methyl-3-{N′-[3-methyl-5-oxo-1-(5,6,7,8-tetrahydro-naphthalen-2-yl)-1,5-dihydro-pyrazol-4-ylidene]-hydrazino}-phenyl)-furan-2-carboxylic acid]

- EC50 (human TPO receptor): 55 nM
SMILES: CC1=NN(c2ccc3c(c2)CCCC3)C(=O)/C1=N\Nc1cccc(-c2csc(C(=O)O)c2)c1O [Example 51, 4-(2-Hydroxy-3-{N′-[3-methyl-5-oxo-1-(5,6,7,8-tetrahydro-naphthalen-2-yl)-1,5-dihydro-pyrazol-4-ylidene]-hydrazino}-phenyl)-thiophene-2-carboxylic acid]

- EC50 (human TPO receptor): 133 nM
SMILES: COC(=O)c1ccc(-c2cccc(N/N=C3\C(=O)N(c4ccc5c(c4)CCCC5)N=C3C)c2O)o1 [Example 54, 5-(2-Hydroxy-3-{N′-[3-methyl-5-oxo-1-(5,6,7,8-tetrahydro-naphthalen-2-yl)-1,5-dihydro-pyrazol-4-ylidene]-hydrazino}-phenyl)-furan-2-carboxylic acid methyl ester]

- EC50 (human TPO receptor): 71 nM
SMILES: COC(=O)c1ccc(-c2cccc(N/N=C3\C(=O)N(c4ccc5c(c4)CCC5)N=C3C)c2O)o1 [Example 55, 5-{2-hydroxy-3-[N′-(1-indan-5-yl-3-methyl-5-oxo-1,5-dihydro-pyrazol-4-ylidene)-hydrazino]-phenyl}-furan-2-carboxylic acid methyl ester]

- EC50 (human TPO receptor): 60 nM
SMILES: CC1=NN(c2ccc3c(c2)CC(C)(C)C3)C(=O)/C1=N\Nc1cccc(-c2cccc(C(=O)O)c2)c1O [Example 56, 3′-{N′-[1-(2,2-Dimethyl-indan-5-yl)-3-methyl-5-oxo-1,5-dihydro-pyrazol-4-ylidene]-hydrazino}-2′-hydroxy-biphenyl-3-carboxylic acid]
